Measurements reported in patent publication US20240109925A1, “Enhanced Anti-Proliferative and Antitumor Immune Effects of Mitochondria-Targeted Hydroxyurea” (The Medical College of Wisconsin, Inc., priority 2021, published 2024).
Like-named read-outs stand apart in the source and are kept apart here.

Legend:
Assay type in all cases: cell-based
mitochondrial complex I = mitochondrial complex I (Homo sapiens, UniProt O75251+O75306+P03886); assay: Complex I-dependent oxygen consumption (OCR), Seahorse XF-96, HCT116 cells
Method: (§1) FIG. 2. Effects of HU and Mito-HUs on the oxygen consumption by mitochondrial complexes I and III (A) Dose-dependent effects of HU, Mito10-HU, Mito12-HU, Mito14-HU, Mito16-HU, and Mito20-HU on complex I- and complex III-dependent oxygen consumption were measured in HCT116 cells. HCT116 cells were treated with HU or Mito-HUs as indicated for 24 hr. Mitochondrial complex I activity (left) and complex III activity (right) were monitored by a Seahorse XF-96 analyzer. Either rotenone (complex I inhibitor) or antimycin A (complex III inhibitor) was acutely added and OCR assayed immediately. (B) The mitochondrial complex I (left) and III (right) dependent oxygen consumption (calculated as rotenone or antimycin A inhibitable OCR) are plotted against concentration of HU and Mito-HUs. Dashed lines represent the fitting curves used for determination of the IC50 values. Data shown are the means G SD.
(§2) Mitochondrial oxygen consumption was measured using the Seahorse XF-96 Extracellular Flux Analyzer (Agilent, North Billerica, MA) (Cheng et al., 2013, 2016; Boyle et al., 2018; Weinberg and Chandel, 2015). After cells were treated with HU or Mito-HUs for 24 hr, the OCR-based assessment of mitochondrial complex activities was carried out on acutely permeabilized cells in the presence of different mitochondrial substrates, i.e., pyruvate/malate for complex I and duroquinol for complex III (Cheng et al., 2016, 2019; Salabei et al., 2014; Wheaton et al., 2014). Rotenone, malonate, and antimycin A (Sigma-Aldrich, St. Louis, MO) were used as specific inhibitors of mitochondrial complexes I, II, and III, respectively. Briefly, cells that were intact after treatments were immediately permeabilized using the Seahorse XF Plasma Membrane Permeabilizer (Agilent). The mitochondrial complex I-induced OCR was assayed in mannitol and sucrose buffer (Salabei et al., 2014) containing 10 mM pyruvate and 1.5 mM malate (substrates for complex I) and 10 mM malonate (which inhibits complex II activities). The mitochondrial complex III-driven OCR was assayed in a mannitol and sucrose buffer containing 0.5 mM duroquinol (substrate for complex III) as well as […] and 10 mM malonate (which inhibit both complex I and II activities). The IC50 values were determined as previously reported (Cheng et al., 2019).

[1] = tested on: HCT116 human colon cancer cells; assay: Cell proliferation (cell confluence), IncuCyte Live-Cell Analysis system; details: for IC50: Homo sapiens, HCT-116, at ~90% confluence of control; for inhibition of proliferation of HCT116 cells / IC50: HCT116; for Cell Confluence (%): when control cells reached ~90% confluence, n = 4
Source text: FIG. 1. Effects of HU and Mito-HUs on proliferation of HCT116 human colon cancer cells (A) Effects of HU and Mito-HUs on the proliferation of HCT116 cells were monitored in the IncuCyte Live-Cell Analysis system. The IncuCyte Analyzer provides real-time updates on cell confluence, based on segmentation of high definition-phase contrast images. Representative cell images were shown as segmentation mask illustrated in brown when control cells reached 90% confluence (vertical solid black line). (B) The IC50 values were determined at the point at which control cells reached ˜90% confluence (vertical solid black line). Relative cell confluence (control is taken as 100%) is plotted against concentration. Dashed lines represent the fitting curves used to determine the IC50 values as indicated. Data shown are the means & SD.
The following cell lines were obtained from the American Type Culture Collection (Manassas, VA), where they were regularly authenticated: HCT116 (ATCC Cat #CRL-247, human colon cancer cells) and MiaPaCa-2 (ATCC Cat #CRL-1420, human pancreatic cancer cells). All cells were cultured in a humidified incubator at 37° C. and 5% carbon dioxide. HCT116 cells were maintained in RPMI 1640 medium (Thermo Fisher Scientific, Cat #11875), supplemented with 10% fetal bovine serum. MiaPaCa-2 cells were maintained in Dulbecco's Modified Eagle Medium (Thermo Fisher Scientific, Waltham, MA; Cat #11965) supplemented with 10% fetal bovine serum. All cells were stored in liquid nitrogen and used within 20 passages after thawing.
The IncuCyte Live-Cell Analysis system (Essen Bioscience Inc., Ann Arbor, MI) was used to monitor cell proliferation (Cheng et al., 2013, 2016; Boyle et al., 2018). As shown in previous publications (Cheng et al., 2013, 2016), this imaging system is probe-free and noninvasive, and enables continuous monitoring of cell confluence over several days. The increase in the percentage of cell confluence was used as a surrogate marker of cell proliferation. In a 96-well plate, cells were plated at 1,000 cells per well in triplicates and left to adhere overnight. Cells were then treated with HU and Mito-HUs, and the cell confluency was recorded over several days in the IncuCyte Live-Cell Analysis system.

[2] = molecular target: T1, mitochondrial complex III (Homo sapiens, UniProt P00156+P47985); assay: Complex III-dependent oxygen consumption (OCR), Seahorse XF-96, HCT116 cells
T1 construct: other: mean ± SD; HCT116, 24 hr treatment; Complex III activity (OCR, % of control); other: 0.1 μM, 24 hr, HCT116; n = 4; other: 0.5 μM, 24 hr, HCT116; other: 0.75 μM, 24 hr, HCT116; other: 1 μM, 24 hr, HCT116; Compl
Method: as §1, §2

[3] = mean ± SD; HCT116, 24 hr treatment; read-out: IC50 Complex I (FIG. 2)
[4] = read-out: IC50 proliferation of HCT116 cells
[5] = mean ± SD, read-out: IC50 Cell Proliferation (FIG. 1)
[6] = mean ± SD; HCT116, 24 hr treatment; read-out: IC50 Complex III (FIG. 2)

With `NC(=O)NOCCCCCCCCCCCC[P+](c1ccccc1)(c1ccccc1)c1ccccc1.O=C([O-])C(F)(F)F` [Mito12-HU, 12-[(carbamoylamino)oxy]-dodecyltriphenylphosphonium trifluoroacetate] the “effect on complex I-induced oxygen consumption” value (mitochondrial complex I; HCT116, 24 hr) was “potently inhibited”, the IC50 (mitochondrial complex I; [3]) was 1.6 ± 0.16 µM and the “inhibition of proliferation of HCT116 cells” value (from here on “inhibition”) [1] was “dose-dependently inhibited proliferation”. For the same compound, the IC50 [1, 4] was 1.8 µM, the IC50 [1, 5] was 1.8 ± 0.05 µM and the “effect on complex III-induced oxygen consumption” value ([2]; HCT116, 24 hr) was “potently inhibited”. It also gave an IC50 [2, 6] of 3.1 ± 0.18 µM.

In the case of `NC(=O)NOCCCCCCCCCCCCCCCC[P+](c1ccccc1)(c1ccccc1)c1ccccc1.O=C([O-])C(F)(F)F` [Mito16-HU, 16-[(carbamoylamino)oxy]-hexadecyltriphenylphosphonium trifluoroacetate], the “effect on complex I-induced oxygen consumption” value (mitochondrial complex I; HCT116, 24 hr) is reported as “potently inhibited”, the IC50 (mitochondrial complex I; [3]) is reported as 0.8 ± 0.05 µM and the “inhibition” value [1] is reported as “dose-dependently inhibited proliferation”. The IC50 [1, 4] was 0.51 µM, the IC50 [1, 5] was 0.5 ± 0.01 µM and the “effect on complex III-induced oxygen consumption” value ([2]; HCT116, 24 hr) was “potently inhibited”. It also gave an IC50 [2, 6] of 2.6 ± 0.39 µM.

`NC(=O)NO` [HU, Hydroxyurea] was tested, and the “effect on complex I-induced oxygen consumption” value (mitochondrial complex I; HCT116, 24 hr) was “no apparent effects”, the remaining activity at 10 µM (mitochondrial complex I; HCT-116; 10 μM, 24 hr, HCT116; n = 4; read-out: Complex I activity (OCR, % of control)) was 84.7% and the remaining activity at 30 µM (mitochondrial complex I; HCT-116; 30 μM, 24 hr, HCT116; n = 4; read-out: Complex I activity (OCR, % of control)) was 77%. It also gave a remaining activity at 100 µM (mitochondrial complex I; HCT-116; 100 μM, 24 hr, HCT116; n = 4; read-out: Complex I activity (OCR, % of control)) of 87.9%, a remaining activity at 150 µM (mitochondrial complex I; HCT-116; 150 μM, 24 hr, HCT116; n = 4; read-out: Complex I activity (OCR, % of control)) of 86.1% and a remaining activity at 200 µM (mitochondrial complex I; HCT-116; 200 μM, 24 hr, HCT116; n = 4; read-out: Complex I activity (OCR, % of control)) of 86.5%. The remaining activity at 250 µM (mitochondrial complex I; HCT-116; 250 μM, 24 hr, HCT116; n = 4; read-out: Complex I activity (OCR, % of control)) was 91.3%, the remaining activity at 300 µM (mitochondrial complex I; HCT-116; 300 μM, 24 hr, HCT116; n = 4; read-out: Complex I activity (OCR, % of control)) was 85.7% and the remaining activity at 400 µM (mitochondrial complex I; HCT-116; 400 μM, 24 hr, HCT116; n = 4; read-out: Complex I activity (OCR, % of control)) was 70.5%. For the same compound, the remaining activity at 500 µM (mitochondrial complex I; HCT-116; 500 μM, 24 hr, HCT116; n = 4; read-out: Complex I activity (OCR, % of control)) was 82.1%, the remaining activity at 1000 µM (mitochondrial complex I; HCT-116; 1000 μM, 24 hr, HCT116; n = 4; read-out: Complex I activity (OCR, % of control)) was 80.2% and the remaining activity at 3000 µM (mitochondrial complex I; HCT-116; 3000 μM, 24 hr, HCT116; n = 4; read-out: Complex I activity (OCR, % of control)) was 83.1%. The IC50 (mitochondrial complex I; read-out: IC50 Complex I (FIG. 2); mean ± SD; HCT116, 24 hr treatment) was over 3000 µM, the “Cell Confluence (%)” value ([1]; 10 μM) was 89.91% and the “Cell Confluence (%)” value ([1]; 30 μM) was 91.61%. The “Cell Confluence (%)” value ([1]; 100 μM) was 66.96%, the “Cell Confluence (%)” value ([1]; 150 μM) was 48.62% and the “Cell Confluence (%)” value ([1]; 200 μM) was 31.90%. The “Cell Confluence (%)” value ([1]; 250 μM) was 22.99%, the “Cell Confluence (%)” value ([1]; 300 μM) was 17.30% and the “Cell Confluence (%)” value ([1]; 400 μM) was 11.42%. The “Cell Confluence (%)” value ([1]; 500 μM) was 8.79%, the “Cell Confluence (%)” value ([1]; 1000 μM) was 5.40% and the “Cell Confluence (%)” value ([1]; 3000 μM) was 3.43%. The IC50 [1, 5] was 180 ± 6.7 µM, the “effect on complex III-induced oxygen consumption” value ([2]; HCT116, 24 hr) was “no apparent effects” and the remaining activity at 10 µM ([2]; HCT-116; 10 μM, 24 hr, HCT116; n = 4; read-out: Complex III activity (OCR, % of control)) was 94.1%. It also gave a remaining activity at 30 µM ([2]; HCT-116; 30 μM, 24 hr, HCT116; n = 4; read-out: Complex III activity (OCR, % of control)) of 81.2%, a remaining activity at 100 µM ([2]; HCT-116; 100 μM, 24 hr, HCT116; n = 4; read-out: Complex III activity (OCR, % of control)) of 94.6% and a remaining activity at 150 µM ([2]; HCT-116; 150 μM, 24 hr, HCT116; n = 4; read-out: Complex III activity (OCR, % of control)) of 92.2%. It also gave a remaining activity at 200 µM ([2]; HCT-116; 200 μM, 24 hr, HCT116; n = 4; read-out: Complex III activity (OCR, % of control)) of 82.7%, a remaining activity at 250 µM ([2]; HCT-116; 250 μM, 24 hr, HCT116; n = 4; read-out: Complex III activity (OCR, % of control)) of 89.1% and a remaining activity at 300 µM ([2]; HCT-116; 300 μM, 24 hr, HCT116; n = 4; read-out: Complex III activity (OCR, % of control)) of 88.7%. It also gave a remaining activity at 400 µM ([2]; HCT-116; 400 μM, 24 hr, HCT116; n = 4; read-out: Complex III activity (OCR, % of control)) of 86.8%, a remaining activity at 500 µM ([2]; HCT-116; 500 μM, 24 hr, HCT116; n = 4; read-out: Complex III activity (OCR, % of control)) of 88.9% and a remaining activity at 1000 µM ([2]; HCT-116; 1000 μM, 24 hr, HCT116; n = 4; read-out: Complex III activity (OCR, % of control)) of 93.1%. For the same compound, the remaining activity at 3000 µM ([2]; HCT-116; 3000 μM, 24 hr, HCT116; n = 4; read-out: Complex III activity (OCR, % of control)) was 94.4% and the IC50 ([2]; read-out: IC50 Complex III (FIG. 2); mean ± SD; HCT116, 24 hr treatment) was over 3000 µM.

With `NC(=O)NOCCCCCCCCCCCCCCCCCCCC[P+](c1ccccc1)(c1ccccc1)c1ccccc1.O=C([O-])C(F)(F)F` [Mito20-HU, 20-[(carbamoylamino)oxy]-eicosanyltriphenylphosphonium trifluoroacetate] the IC50 (mitochondrial complex I; [3]) was 0.8 ± 0.06 µM, the “inhibition” value [1] was “dose-dependently inhibited proliferation” and the IC50 [1, 4] was 0.23 µM. For the same compound, the IC50 [1, 5] was 0.23 ± 0.02 µM and the IC50 [2, 6] was 4.2 ± 0.4 µM.
